# Data: patent US20120302526A1, “METHODS FOR TREATING POST-TRAUMATIC STRESS DISORDER” (Regents of the University of Colorado, a body corporate, priority 2011, published 2012)
# Legend:
# [1] = test system: TBI induced anxiety-like behavior (LFPI rats); assay: Freezing in a novel context after LFPI and foot shock, post-injury ibudilast (Example 1, FIG. 1); format: in vivo, Sprague-Dawley rats
# Description: Twenty-four adult viral-free male Sprague-Dawley rats (275-325 g; Harlan Laboratories, Madison, Wis.) were housed in pairs in temperature (23±3° C.) and light (12:12 light:dark) controlled rooms with ad libitum access to food and water. All procedures were performed in accordance with University of Colorado Institutional Animal Care and Use Committee guidelines for the humane use of laboratory rats in biological research. Rats were randomly assigned to 1 of 4 groups (n=6/group; Sham-operated/vehicle-injected, Sham-operated/ibudilast-injected, LFPI/vehicle-injected, LFPI/ibudilast-injected). All rats were shocked approximately 2 weeks following LFPI to enhance freezing behavior in a novel context (a natural fear reaction in this species). After freezing behavior had been established (1 month post-injury) animals were subjected to a 5-day regimen of ibudilast or vehicle (corn oil) injections (once daily for 5 days). Freezing behavior was again assessed at 2 weeks, 1 month, 2 months, and at 3 months post-injection. Lateral Fluid Percussion Injury. LFPI rats were anesthetized with halothane (4% induction, 2.0-2.5% maintenance) and mounted in a stereotaxic frame. The lateral fluid percussion injury used in this study utilized a PV820 Pneumatic PicoPump (World Precision Instruments, Inc., Sarasota, Fla.) to deliver standardized pressure pulses of air to a standing column of fluid. A 3.0 mm diameter craniotomy was centered at 3 mm caudal to bregma and 4.0 mm lateral of the sagittal suture, with the exposed dura remaining intact. A female Luer-Loc hub (inside diameter of 3.5 mm) was secured over the craniotomy with cyanoacrylate adhesive. Following hub implantation, the animal was removed from the stereotaxic frame and connected to the LFPI apparatus. […] Weight was recorded prior to each dosing. […] Rats were tested (5 minutes) and the percent of freezing behavior was assessed. Freezing was defined as the absence of movement except for heart beat/respiration, and was recorded in 10 sec intervals. Statistical Analyses: Results are expressed as mean±SEM. […]
# [2] = test system: TBI induced anxiety-like behavior (LFPI rats); assay: Freezing in shock chamber after fear conditioning, peri-injury ibudilast (Example 2, FIG. 2); format: in vivo; conditions: 10 mg/kg in corn oil, 5 days (2 days before LFPI, day of LFPI, 2 days after); 1 and 3 months post-injury
# Description: All animals were fear conditioned by receiving shock (1.5 mA; 3-sec) immediately upon being placed in an experimental chamber. Freezing behavior was then measured the following day upon being replaced in the same chamber. Naïve (no surgical procedures) and Sham (LFPI surgery without pressure pulse) froze at a typical rate of approximately 15-20% when measured at 1 and 3 months post-injury (FIG. 2). In contrast, cohorts who received LFPI froze approximately 3 times as long at both time points.
# [3] = test system: TBI induced anxiety-like behavior (LFPI animals); assay: Freezing in a novel context, shock at 1 month post-injury, peri-injury MN166 (Example 3, FIG. 3B); format: in vivo, rats; conditions: 10 mg/kg s.c. 5 days peri-injury
# From the text: Freezing behavior in rats was elicited substantially in the manner described before. When freezing behavior was made the dependent variable after placement in a novel context, large and stable differences between Naïve and LFPI animals were seen (FIG. 3). LFPI animals froze approximately 20-40% of the time compared to 5-10% for Naïve animals (FIG. 3A). Increased freezing behavior in LFPI compared to Naïve animals was significant at all time points (p<0.001). […] These animals included Naïve and LFPI groups as in FIG. 3A, but also LFPI+MN166 (Animals received a 5-day dosing regimen in which they received once-daily ibudilast injections 24 hr prior to LFPI, the day of surgery and LFPI, and 3 days following LFPI (10 mg/kg, 1 ml/kg subcutaneously in corn oil)) and a Sham surgery group. Overall, LFPI animals froze substantially more than Naïve, LFPI+MN166, and Sham groups at the 1, 2 and 3 month time points (p<0.001). Similar to the animals of FIG. 3A, at 2 weeks and 1 month post-injury, LFPI animals froze approximately 20-30% of the time in the novel context compared to approximately 5% for Naïve animals (p<0.001).
# [4] = test system: TBI induced anxiety-like behavior (LFPI animals); assay: Freezing in test chamber after immediate shock, peri-injury MN166 (Example 3, FIG. 4B); format: in vivo, rats; conditions: 1 and 3 months post-injury, untreated LFPI approximately 60% (p<0.003 and 0.0001)
# From the text: Animals with LFPI froze approximately 3-4 times longer (30-40%) than Naïve animals (<10%) when placed in the test chamber (FIG. 4A). […] However, LFPI animals froze substantially more (approximately 60%) after shock compared to LFPI animals receiving no shock (30-35%; p<0.001 and 0.003, respectively). […] LFPI animals consistently froze more than all other groups, at all time points, with or without shock. […] However, by 3 months this difference was no longer significant (p<0.493).
compound,measurement,setting,value
"CC(C)C(=O)c1c(C(C)C)nn2ccccc12 [Ibudilast, 2-Methyl-1-[2-(1-methylethyl)pyrazolo[1,5-a]pyridin-3-yl]-1-propanone]",freezing behavior of treated LFPI rats vs untreated LFPI rats,"[1]; LFPI rats, 10 mg/kg s.c. once daily for 5 days at 1 month post-injury, up to 3 months post-treatment, p<0.01",froze substantially less
same,freezing compared to untreated injured animals,"[1]; LFPI rats, 10 mg/kg s.c. once daily for 5 days, started 1 month post-injury, P<0.05",about 60%
same,influence on freezing of control animals,"[1]; Sham-operated rats, 10 mg/kg s.c. once daily for 5 days, all post-injection time-points",no influence on control animals
same,freezing behavior vs LFPI animals receiving vehicle injections,[2],substantially less
same,percent freezing in novel context,"[3]; 3 months post-injury, untreated LFPI 50%, Naïve 8%, Sham 10%",14%
same,"freezing compared to untreated LFPI animals, novel context","[3]; significant at 1, 2 and 3 months post-injury (p<0.01, 0.001, 0.0001)",greatly reduced freezing
same,percent freezing in test chamber after shock,[4],25-35%
